# System: wild oat
# Experiment: Test Example 5: herbicidal effect by foliage application, plastic box (Table 20, symbol I)
# Assay type: in vivo, wild oat (Avena fatua)
# Details: foliage application, AAH 320 g/ha, evaluated three weeks after application
# How it was run: (§1)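 Foliar spray test: emulsion formulation diluted in water to a set application rate, sprayed onto 14-day-old plants raised in diluvial soil at 25° C to 30° C under glass. Both herbicidal effect and crop effect rated visually three weeks later.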
row,Compound,"I: wild oat, herbicidal effect (criteria 0-5)"
1,Cc1nn(C)c(=O)c(-c2c(-c3ccc([S+]([O-])C(C)C)cc3)sc3ccc(F)cc23)c1O (stereo not shown) [2-257],5 (Herbicidal rate of 90% or more (almost completely withered))

# System: persian speedwell
# Experiment: Test Example 5: herbicidal effect by foliage application, plastic box (Table 20, symbol R)
# Assay type: in vivo, Persian speedwell (Veronica persica)
# Details: foliage application, AAH 320 g/ha, evaluated three weeks after application
# How it was run: as §1
row,Compound,"R: persian speedwell, herbicidal effect (criteria 0-5)"
1,Cc1nn(C)c(=O)c(-c2c(-c3ccc([S+]([O-])C(C)C)cc3)sc3ccc(F)cc23)c1O (stereo not shown) [2-257],5 (Herbicidal rate of 90% or more (almost completely withered))

# System: late watergrass
# Experiment: Test Example 2: herbicidal activity, application during weed generation under submerged conditions (Table 17, symbol A)
# Assay type: in vivo, late watergrass (Echinochloa oryzicola)
# Details: AAH 320 g/ha; application during weed generation, submerged conditions
# How it was run: (§2)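 In this pot test, flooded alluvial soil (water depth 4 cm) holds all three species sown as a mixture. Once seedlings have one to two leaves, the compound's emulsion, thinned with water to the intended dose, is poured on the water; grading follows after three weeks on the earlier criteria.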
row,Compound,"herbicidal effect rating, A: late watergrass"
1,Cc1nn(C)c(=O)c(-c2c(-c3ccc([S+]([O-])C(C)C)cc3)sc3ccc(F)cc23)c1O (stereo not shown) [2-257],2 (Herbicidal rate of 20% or more and less than 40%)

# System: redroot pigweed
# Experiment: Test Example 4: herbicidal effect by soil treatment (Table 19, symbol N)
# Assay type: in vivo, redroot pigweed (Amaranthus retroflexus)
# Details: amount of applied herbicide 320 g/ha
# How it was run: (§3)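 Herbicidal effect was rated 3 weeks after treatment, using the scoring criteria of an earlier test. The compound, formulated as an emulsion and diluted in water to a set herbicide amount, had been sprayed uniformly on soil over freshly sown seeds. Growth took place in a greenhouse at 25° C. to 30° C.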
row,Compound,herbicidal effect on N: redroot pigweed
1,Cc1nn(C)c(=O)c(-c2c(-c3ccc([S+]([O-])C(C)C)cc3)sc3ccc(F)cc23)c1O (stereo not shown) [2-257],5 (Herbicidal rate of 90% or more (almost completely withered))

# System: late watergrass
# Experiment: Test Example 1: herbicidal activity, application before weed generation under submerged conditions (Table 16, symbol A)
# Assay type: in vivo, late watergrass (Echinochloa oryzicola)
# Details: 320 g/ha applied herbicide
# How it was run: (§4)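 Submerged Wagner pots (alluvial soil, 4 cm water) sown with weed seeds and planted with 2.5-leaf rice seedlings; emulsifiable concentrate diluted in water applied to water surface on sowing day. Held in greenhouse at 25-30 °C; injury scored 0-5 by herbicidal rate after three weeks.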
row,Compound,Herbicidal effect on A: late watergrass (grade 0-5)
1,Cc1nn(C)c(=O)c(-c2c(-c3ccc([S+]([O-])C(C)C)cc3)sc3ccc(F)cc23)c1O (stereo not shown) [2-257],1 (Herbicidal rate of 5% or more and less than 20%)

# System: rice flat sedge
# Experiment: Test Example 3: herbicidal effect by foliage application, Wagner pot (Table 18, symbol E)
# Assay type: in vivo, rice flat sedge (Cyperus iria)
# Details: amount of applied herbicide 320 g/ha
# How it was run: (§5)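 Plants were sown in alluvial soil held under 0.1–0.5 cm standing water and grown 14 days in a greenhouse at 25–30 °C. An emulsifiable formulation, water-diluted to the set dose, was then sprayed onto the foliage, and effects were scored three weeks later using previously defined criteria.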
row,Compound,herbicidal effect on E: rice flat sedge
1,Cc1nn(C)c(=O)c(-c2c(-c3ccc([S+]([O-])C(C)C)cc3)sc3ccc(F)cc23)c1O (stereo not shown) [2-257],5 (Herbicidal rate of 90% or more (almost completely withered))

# System: Chinese sprangletop
# Experiment: Test Example 3: herbicidal effect by foliage application, Wagner pot (Table 18, symbol D)
# Assay type: in vivo, chinese sprangletop (Leptochloa chinensis)
# Details: amount of applied herbicide 320 g/ha
# How it was run: as §5
row,Compound,herbicidal effect on D: Chinese sprangletop
1,Cc1nn(C)c(=O)c(-c2c(-c3ccc([S+]([O-])C(C)C)cc3)sc3ccc(F)cc23)c1O (stereo not shown) [2-257],3 (Herbicidal rate of 40% or more and less than 70%)

# System: green foxtail
# Experiment: Test Example 5: herbicidal effect by foliage application, plastic box (Table 20, symbol G)
# Assay type: in vivo, green foxtail (Setaria viridis)
# Details: foliage application, AAH 320 g/ha, evaluated three weeks after application
# How it was run: as §1
row,Compound,"G: green foxtail, herbicidal effect (criteria 0-5)"
1,Cc1nn(C)c(=O)c(-c2c(-c3ccc([S+]([O-])C(C)C)cc3)sc3ccc(F)cc23)c1O (stereo not shown) [2-257],4 (Herbicidal rate of 70% or more and less than 90%)

# System: oval-leafed pondweed
# Experiment: Test Example 2: herbicidal activity, application during weed generation under submerged conditions (Table 17, symbol C)
# Assay type: in vivo, oval-leafed pondweed (Monochoria vaginalis)
# Details: AAH 320 g/ha; application during weed generation, submerged conditions
# How it was run: as §2
row,Compound,"herbicidal effect rating, C: oval-leafed pondweed"
1,Cc1nn(C)c(=O)c(-c2c(-c3ccc([S+]([O-])C(C)C)cc3)sc3ccc(F)cc23)c1O (stereo not shown) [2-257],0 (Herbicidal rate of 5% or less (almost no effect))

# System: blackgrass
# Experiment: Test Example 5: herbicidal effect by foliage application, plastic box (Table 20, symbol J)
# Assay type: in vivo, blackgrass (Alopecurus myosuroides)
# Details: foliage application, AAH 320 g/ha, evaluated three weeks after application
# How it was run: as §1
row,Compound,"J: blackgrass, herbicidal effect (criteria 0-5)"
1,Cc1nn(C)c(=O)c(-c2c(-c3ccc([S+]([O-])C(C)C)cc3)sc3ccc(F)cc23)c1O (stereo not shown) [2-257],4 (Herbicidal rate of 70% or more and less than 90%)

# System: Japanese bulrush
# Experiment: Test Example 1: herbicidal activity, application before weed generation under submerged conditions (Table 16, symbol B)
# Assay type: in vivo, Japanese bulrush (Schoenoplectus juncoides)
# Details: 320 g/ha applied herbicide
# How it was run: as §4
row,Compound,Herbicidal effect on B: Japanese bulrush (grade 0-5)
1,Cc1nn(C)c(=O)c(-c2c(-c3ccc([S+]([O-])C(C)C)cc3)sc3ccc(F)cc23)c1O (stereo not shown) [2-257],0 (Herbicidal rate of 5% or less (almost no effect))

# System: Italian ryegrass
# Experiment: Test Example 4: herbicidal effect by soil treatment (Table 19, symbol K)
# Assay type: in vivo, Italian ryegrass (Lolium multiflorum)
# Details: amount of applied herbicide 320 g/ha
# How it was run: as §3
row,Compound,herbicidal effect on K: Italian ryegrass
1,Cc1nn(C)c(=O)c(-c2c(-c3ccc([S+]([O-])C(C)C)cc3)sc3ccc(F)cc23)c1O (stereo not shown) [2-257],3 (Herbicidal rate of 40% or more and less than 70%)

# System: barnyard grass
# Experiment: Test Example 3: herbicidal effect by foliage application, Wagner pot (Table 18, symbol H)
# Assay type: in vivo, barnyard grass (Echinochloa crus-galli)
# Details: amount of applied herbicide 320 g/ha
# How it was run: as §5
row,Compound,herbicidal effect on H: barnyard grass
1,Cc1nn(C)c(=O)c(-c2c(-c3ccc([S+]([O-])C(C)C)cc3)sc3ccc(F)cc23)c1O (stereo not shown) [2-257],5 (Herbicidal rate of 90% or more (almost completely withered))

# System: windgrass
# Experiment: Test Example 4: herbicidal effect by soil treatment (Table 19, symbol L)
# Assay type: in vivo, windgrass (Apera spica-venti)
# Details: amount of applied herbicide 320 g/ha
# How it was run: as §3
row,Compound,herbicidal effect on L: windgrass
1,Cc1nn(C)c(=O)c(-c2c(-c3ccc([S+]([O-])C(C)C)cc3)sc3ccc(F)cc23)c1O (stereo not shown) [2-257],0 (Herbicidal rate of 5% or less (almost no effect))

# System: southern crabgrass
# Experiment: Test Example 5: herbicidal effect by foliage application, plastic box (Table 20, symbol F)
# Assay type: in vivo, southern crabgrass (Digitaria ciliaris)
# Details: foliage application, AAH 320 g/ha, evaluated three weeks after application
# How it was run: as §1
row,Compound,"F: southern crabgrass, herbicidal effect (criteria 0-5)"
1,Cc1nn(C)c(=O)c(-c2c(-c3ccc([S+]([O-])C(C)C)cc3)sc3ccc(F)cc23)c1O (stereo not shown) [2-257],3 (Herbicidal rate of 40% or more and less than 70%)

# System: barnyard grass
# Experiment: Test Example 5: herbicidal effect by foliage application, plastic box (Table 20, symbol H)
# Assay type: in vivo, barnyard grass (Echinochloa crus-galli)
# Details: foliage application, AAH 320 g/ha, evaluated three weeks after application
# How it was run: as §1
row,Compound,"H: barnyard grass, herbicidal effect (criteria 0-5)"
1,Cc1nn(C)c(=O)c(-c2c(-c3ccc([S+]([O-])C(C)C)cc3)sc3ccc(F)cc23)c1O (stereo not shown) [2-257],5 (Herbicidal rate of 90% or more (almost completely withered))
